Reference: patent US20170326125A1, “MULTISUBSTITUTED AROMATIC COMPOUNDS AS INHIBITORS OF THROMBIN” (VERSEON CORPORATION, priority 2016, published 2017)
pIC50: −log10 of the molar value.

Molecular target: T1, Human thrombin (Homo sapiens, UniProt P00734)
T1 construct: purchased Haematologic Technologies Inc
Experiment: Inhibition of the protease activity of thrombin (chromogenic substrate S-2238)
Type: biochemical
Conditions: Table C; 3 nM thrombin, 125 μM S-2238, 10 min pre-incubation, RT

| pIC50 | SMILES |
| --- | --- |
| < 6.00 | COc1ccc(CNc2nc(-c3cccnc3)nn2C(=O)c2cccs2)cc1 [Cmpd 405, N-[(4-methoxyphenyl)methyl]-3-(pyridin-3-yl)-1-[(thiophen-2-yl)carbonyl]-1H-1,2,4-triazol-5-amine] |
| < 6.00 | COCC(=O)n1nc(-c2cccnc2)nc1NCc1ccc(F)cc1 [Cmpd 311, 1-(5-[(4-fluorophenyl)methyl]amino-3-(pyridin-3-yl)-1H-1,2,4-triazol-1-yl)-2-methoxyethan-1-one] |
| < 6.00 | O=C(Nc1ccc(Br)cc1)c1nc(-n2cnnc2)n[nH]1 [Cmpd 392, N-(4-bromophenyl)-3-(4H-1,2,4-triazol-4-yl)-1H-1,2,4-triazole-5-carboxamide] |
| < 6.00 | Nc1n[nH]c(-c2ccncc2)n1 [Cmpd 3, 3-(pyridin-4-yl)-1H-1,2,4-triazol-5-amine] |
| < 6.00 | Nc1nc(-c2cccnc2)nn1S(=O)(=O)c1ccccc1 [Cmpd 326, 1-(benzenesulfonyl)-3-(pyridin-3-yl)-1H-1,2,4-triazol-5-amine] |
| > 7.00 | O=C(c1ccccc1)n1nc(-c2ccco2)nc1NCc1ccccc1 [Cmpd 358, 1-benzoyl-N-benzyl-3-(furan-2-yl)-1H-1,2,4-triazol-5-amine] |
| > 7.00 | CC(C)C(=O)n1nc(-c2ccco2)nc1NCc1ccc(F)cc1 [Cmpd 310, 1-(5-[(4-fluorophenyl)methyl]amino-3-(furan-2-yl)-1H-1,2,4-triazol-1-yl)-2-methylpropan-1-one] |
| < 6.00 | CS(=O)(=O)n1nc(C(=O)N2CCOCC2)nc1N [Cmpd 360, 1-methanesulfonyl-3-[(morpholin-4-yl)carbonyl]-1H-1,2,4-triazol-5-amine] |

Same assay, conditions: inhibition of the protease activity of thrombin

| pIC50 | SMILES |
| --- | --- |
| < 6.00 | O=C(c1cccc2c1OC(F)(F)O2)n1nc(-c2ccccn2)nc1NCc1ccccc1 [Cmpd 231, N-benzyl-1-[(2,2-difluoro-2H-1,3-benzodioxol-4-yl)carbonyl]-3-(pyridin-2-yl)-1H-1,2,4-triazol-5-amine] |
| > 7.00 | O=C(c1ccco1)n1nc(-c2ccncc2)nc1NCc1ccccc1 [Cmpd 266, N-benzyl-1-[(furan-2-yl)carbonyl]-3-(pyridin-4-yl)-1H-1,2,4-triazol-5-amine] |
| 6.00 to 7.00 | O=C(c1ccccc1Cl)n1nc(-c2ccccn2)cc1NCc1ccccc1 [Cmpd 244, N-benzyl-1-[(2-chlorophenyl)carbonyl]-3-(pyridin-2-yl)-1H-pyrazol-5-amine] |
| > 7.00 | O=C(c1cccc2c1OCCO2)n1nc(-c2ccccn2)nc1NCc1ccccc1 [Cmpd 232, N-benzyl-1-[(2,3-dihydro-1,4-benzodioxin-5-yl)carbonyl]-3-(pyridin-2-yl)-1H-1,2,4-triazol-5-amine] |

The next lines start with the compound.

| SMILES | pIC50 |
| --- | --- |
| O=C(N1CCCCC1)n1nc(-c2cccnc2)nc1NCc1ccc(F)cc1 [Cmpd 215, N-[(4-fluorophenyl)methyl]-1-[(piperidin-1-yl)carbonyl]-3-(pyridin-3-yl)-1H-1,2,4-triazol-5-amine] | < 6.00 |
| COc1cc(C)ccc1C(=O)n1nc(-c2ccccc2)nc1NCc1ccc(F)cc1 [Cmpd 205, N-[(4-fluorophenyl)methyl]-1-[(2-methoxy-4-methylphenyl)carbonyl]-3-phenyl-1H-1,2,4-triazol-5-amine] | 6.00 to 7.00 |

Same assay, conditions: inhibition of the protease activity of thrombin; class symbols a/b/c

| pIC50 | SMILES |
| --- | --- |
| < 6.00 | c1cncc(-c2n[nH]c(NCc3cccs3)n2)c1 [Cmpd 178, 3-(pyridin-3-yl)-N-(thiophen-2-ylmethyl)-1H-1,2,4-triazol-5-amine] |
| < 6.00 | O=C(c1cc(-c2ccccn2)nn1CCc1ccc(F)cc1)N1CCCCC1 [Cmpd 54] |
| > 7.00 | CCCC(=O)n1nc(-c2ccncc2)nc1NCc1ccccc1 [Cmpd 150, 1-[5-(benzylamino)-3-(pyridin-4-yl)-1H-1,2,4-triazol-1-yl]butan-1-one] |
| > 7.00 | O=C(Cc1ccccc1)n1nc(-c2ccncc2)nc1NCc1ccc(F)cc1 [Cmpd 77, 1-(5-[(4-fluorophenyl)methyl]amino-3-(pyridin-4-yl)-1H-1,2,4-triazol-1-yl)-2-phenylethan-1-one] |
| < 6.00 | CCC(=O)n1nc(-c2cccnc2)nc1NCCN1CCOCC1 [Cmpd 23] |
